ChEMBL document CHEMBL1129900, “Synthesis and biological evaluation of 1-hydroxy-25(R and S)-25,26-Epoxy-23-yne vitamin D3 and of 1,25(R and S),26-Trihydroxy-23-yne vitamin D3” (1997)

What was measured:
[1] = biological target: T1, Vitamin D3 receptor (Homo sapiens) (UniProt P11473); assay: Relative affinity compared to Calcitriol in displacement of [3H]1H]1-alpha,25(OH)2D3 from vitamin D3 receptor in HL-60 cells; assay type: cell-based
T1 sequence (whole entry): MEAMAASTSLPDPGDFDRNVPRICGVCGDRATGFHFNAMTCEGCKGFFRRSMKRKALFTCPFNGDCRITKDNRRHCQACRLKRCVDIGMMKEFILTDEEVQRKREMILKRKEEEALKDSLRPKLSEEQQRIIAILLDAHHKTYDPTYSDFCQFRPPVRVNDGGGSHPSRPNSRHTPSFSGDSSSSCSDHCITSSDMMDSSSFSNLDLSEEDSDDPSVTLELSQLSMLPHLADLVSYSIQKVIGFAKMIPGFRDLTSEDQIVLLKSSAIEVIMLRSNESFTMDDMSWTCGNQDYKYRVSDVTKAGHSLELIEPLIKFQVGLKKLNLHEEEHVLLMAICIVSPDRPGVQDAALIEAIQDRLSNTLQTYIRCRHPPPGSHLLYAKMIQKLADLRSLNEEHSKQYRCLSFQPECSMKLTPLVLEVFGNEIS

[2] = biological target: T1, Vitamin D3 receptor (Homo sapiens); assay: Relative affinity compared to Calcitriol in displacement of [3H]1H]1-alpha,25(OH)2D3 from Vitamin D3 receptor in Keratinocyte cell lines
Mus musculus = assay: In vivo calcemic effect was tested in vitamin D replete normal […] mice by measuring calcium levels in serum; assay type: functional
[3] = biological target: T1, Vitamin D3 receptor (Homo sapiens); assay: Relative affinity compared to Calcitriol in displacement of [3H]1H]1-alpha,25(OH)2D3 from vitamin D3 receptor in […] cells; assay type: cell-based
[4] = biological target: T2, Vitamin D3 receptor (Sus scrofa) (UniProt A3RGC1); assay: Affinity for pig intestinal mucosa Vitamin D3 receptor (VDR); assay type: tissue-based
T2 sequence (whole entry): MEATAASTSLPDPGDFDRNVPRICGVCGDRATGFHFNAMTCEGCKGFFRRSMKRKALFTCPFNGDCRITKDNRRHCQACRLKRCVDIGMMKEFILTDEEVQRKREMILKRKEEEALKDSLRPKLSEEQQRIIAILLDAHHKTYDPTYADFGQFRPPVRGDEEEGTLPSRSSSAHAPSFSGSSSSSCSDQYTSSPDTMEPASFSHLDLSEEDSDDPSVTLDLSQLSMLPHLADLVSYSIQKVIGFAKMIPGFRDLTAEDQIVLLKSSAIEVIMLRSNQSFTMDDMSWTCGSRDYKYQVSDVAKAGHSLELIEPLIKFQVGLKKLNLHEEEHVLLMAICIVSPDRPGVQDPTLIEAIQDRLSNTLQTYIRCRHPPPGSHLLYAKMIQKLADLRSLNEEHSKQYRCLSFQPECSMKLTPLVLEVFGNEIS

[5] = biological target: T1, Vitamin D3 receptor (Homo sapiens); assay: Relative affinity compared to Calcitriol in displacement of [3H]1H]1-alpha,25(OH)2D3 from vitamin receptor (VDR) in keratinocyte cells; assay type: functional, cell-based
[6] = biological target: T1, Vitamin D3 receptor (Homo sapiens); assay: Relative affinity compared to Calcitriol in displacement of [3H]1H]1-alpha,25(OH)2D3 from vitamin D receptor (VDR) in […] cells; assay type: cell-based
[7] = biological target: T1, Vitamin D3 receptor (Homo sapiens); assay: Relative affinity compared to Calcitriol in displacement of [3H]1H]1-alpha,25(OH)2D3 from vitamin D receptor (VDR) in HL-60 cells; assay type: functional, cell-based
[8] = biological target: T2, Vitamin D3 receptor (Sus scrofa); assay: Affinity for pig intestinal mucosa vitamin D receptor (VDR)

Structure (SMILES)	Activity [1] [%]	Activity [2] [%]	Activity [3] [%]	Activity [4]	Activity [5] [%]	Activity [6] [%]	Activity [7] [%]	Activity [8]	Activity (Mus musculus)
C=C1/C(=C/C=C2/CCC[C@]3(C)[C@@H]([C@H](C)CC#C[C@@](C)(O)CO)CC[C@@H]23)C[C@@H](O)C[C@@H]1O	150	250	150	80	–	–	–	–	0.1
C=C1/C(=C/C=C2/CCC[C@]3(C)[C@@H]([C@H](C)CC#CC4(C)CO4)CC[C@@H]23)C[C@@H](O)C[C@@H]1O (stereo not given in full)	150	250	150	70	–	–	–	–	0.25
C=C1/C(=C/C=C2/CCC[C@]3(C)[C@@H]([C@H](C)CC#C[C@](C)(O)CO)CC[C@@H]23)C[C@@H](O)C[C@@H]1O	150	250	150	70	–	–	–	–	0.7

The next lines start with results.

Activity [1] [%]	Activity [2] [%]	Activity [3] [%]	Activity [4]	Activity [5] [%]	Activity [6] [%]	Activity [7] [%]	Activity [8]	Structure (SMILES)	Activity (Mus musculus)
150	250	150	60	–	–	–	–	C=C1/C(=C/C=C2/CCC[C@]3(C)[C@@H]([C@H](C)CC#C[C@@]4(C)CO4)CC[C@@H]23)C[C@@H](O)C[C@@H]1O	0.3
–	–	–	–	250	150	150	75	C=C1/C(=C/C=C2/CCC[C@]3(C)[C@@H]([C@H](C)CC#C[C@]4(C)CO4)CC[C@@H]23)C[C@@H](O)C[C@@H]1O	0.2
